The values below come from patent US11965039B2, “Compstatin analogues and their medical uses” (priority 2018, dated 2024).

A short description of data set [1]: Solubility test at 10 mg/mL (visual inspection and light scattering). The settings on record: for Solubility, Condition 1: Acetate pH 4; for Solubility, Condition 2: Acetate pH 5; for Solubility, Condition 3: Phosphate pH 6; for Solubility, Condition 4: Phosphate pH 7; for Solubility, Condition 5: Phosphate pH 7.5. In kind it is physicochemical.
In data set [2] the test system is classical complement pathway. Description: In vitro haemolysis assay (inhibition of classical complement pathway). Type of data set: cell-based, human. Conditions: human serum, sensitized sheep red blood cells. The method, boiled down:
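Compound dilutions preincubated 15 min at room temperature with diluted human serum (titrated per batch for 70-90% maximal haemolysis), then antibody-sensitized sheep RBC (10^7/well) added for 30 min at 37 °C in Tris/casein buffer, pH 7.4. Stopped with EDTA; haemolysis read at 405 nm; IC50 by 4PL fit.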

Setting [3] is: Table 3, given as upper bounds, read-out: IC50, inhibition of hemolysis.

Like-named read-outs stand apart in the source and are kept apart here. Starred links: 1 amine or outer side, 2 acyl side, 3 side chain; linkers in the order of their positions; H or OH if unused. Positions of bridges follow the written chain, without caps; N, C: chain ends. Non-standard residues stand in square brackets, D forms with d. Residues, ends and D or L forms follow the SMILES beside them. Groups on a side chain read outwards from the residue. *: point of attachment. Trp(1-Me) = Cn1cc(C[C@H](N)C(=O)O)c2ccccc21; C16 diacid = O=C(O)CCCCCCCCCCCCCCC(=O)*; γGlu = O=C(O)[C@H](CCC(=O)[*:2])N[*:1]; 1Nal = N[C@@H](Cc1cccc2ccccc12)C(=O)O; AEEA = NCCOCCOCC(=O)O; Sar = CNCC(=O)O Some results are limits rather than exact numbers.

As usually defined, the IC50 is the midpoint of a concentration-inhibition curve.

With `CC[C@H](C)[C@@H]1NC(=O)[C@@H](NC(=O)[C@H](Cc2ccccc2)NC(=O)[C@H](C)NC(=O)[C@H](CO)NC(=O)CNC(=O)[C@H](CCC(=O)O)NC(C)=O)CSSC[C@@H](C(=O)N(C)CC(=O)N[C@@H](CCC(=O)O)C(N)=O)NC(=O)[C@H](CCCNC(=N)N)NC(=O)[C@H](Cc2c[nH]cn2)NC(=O)[C@H](CCC(=O)O)NC(=O)CNC(=O)[C@H](Cc2c[nH]c3ccccc23)NC(=O)[C@H](CC(=O)O)NC(=O)[C@H](CCC(N)=O)NC(=O)[C@H](Cc2cn(C)c3ccccc23)NC1=O` [Compound 53] (Ac-EGSAFCI[Trp(1-Me)]QDWGEHRC[Sar]E-NH2; disulfide 6-16), in data set [1], the “Solubility, Condition 1” value is on record as “− (“−” denotes lack of solubility at the given condition, as UV absorbance at 340 nm exceeds 0.1 AU and/or it is visibly turbid or contains particles)”; the “Solubility, Condition 2” value is recorded as “− (“−” denotes lack of solubility at the given condition, as UV absorbance at 340 nm exceeds 0.1 AU and/or it is visibly turbid or contains particles)”; the “Solubility, Condition 3” value is “+ (“+” denotes solubility at the given condition, as determined by UV absorbance being less than 0.1 AU at 340 nm and the sample being clear when manually inspected)”; the “Solubility, Condition 4” value is “+ (“+” denotes solubility at the given condition, as determined by UV absorbance being less than 0.1 AU at 340 nm and the sample being clear when manually inspected)”. Besides, in data set [1], the “Solubility, Condition 5” value is “+ (“+” denotes solubility at the given condition, as determined by UV absorbance being less than 0.1 AU at 340 nm and the sample being clear when manually inspected)”. For the same molecule, in data set [2] (setting [3]), the 50% inhibitory concentration (IC50) was less than 100 nM.
Turning to `CC[C@H](C)[C@@H]1NC(=O)[C@@H](NC(=O)[C@H](Cc2ccc(O)cc2)NC(=O)[C@H](C)NC(=O)[C@H](CO)NC(=O)CNC(=O)[C@H](CCC(=O)O)NC(C)=O)CSSC[C@@H](C(=O)N(C)CC(=O)N[C@@H](CCC(=O)O)C(N)=O)NC(=O)[C@H](CCCCNC(=O)COCCOCCNC(=O)COCCOCCNC(=O)CC[C@H](NC(=O)CCCCCCCCCCCCCCC(=O)O)C(=O)O)NC(=O)[C@H](Cc2c[nH]cn2)NC(=O)[C@H](CCC(=O)O)NC(=O)CNC(=O)[C@H](Cc2c[nH]c3ccccc23)NC(=O)[C@H](CC(=O)O)NC(=O)[C@H](CCC(N)=O)NC(=O)[C@H](Cc2cn(C)c3ccccc23)NC1=O` [Compound 103, Ac-EGSAYC(1)I[1-Me-Trp]QDWGEH-[K([15-carboxy-pentadecanoyl][γGlu][Peg3][Peg3])]-C(1)[Sar]E-NH2] (Ac-EGSAYCI[Trp(1-Me)]QDWGEHK([AEEA-AEEA-γGlu-C16 diacid])C[Sar]E-NH2; disulfide 6-16), in data set [1], the “Solubility, Condition 1” value is “− (“−” denotes lack of solubility at the given condition, as UV absorbance at 340 nm exceeds 0.1 AU and/or it is visibly turbid or contains particles)”; the “Solubility, Condition 2” value was “+ (“+” denotes solubility at the given condition, as determined by UV absorbance being less than 0.1 AU at 340 nm and the sample being clear when manually inspected)”; the “Solubility, Condition 3” value is “+ (“+” denotes solubility at the given condition, as determined by UV absorbance being less than 0.1 AU at 340 nm and the sample being clear when manually inspected)”; the “Solubility, Condition 4” value was “+ (“+” denotes solubility at the given condition, as determined by UV absorbance being less than 0.1 AU at 340 nm and the sample being clear when manually inspected)”. Also, the “Solubility, Condition 5” value in data set [1] is “+ (“+” denotes solubility at the given condition, as determined by UV absorbance being less than 0.1 AU at 340 nm and the sample being clear when manually inspected)”. The half-inhibitory concentration (IC50) in data set [2] (setting [3]) was less than 100 nM.
Turning to `CC[C@H](C)[C@@H]1NC(=O)[C@@H](NC(=O)[C@H](Cc2ccccc2)NC(C)=O)CSSC[C@@H](C(=O)N[C@H](C(=O)NCC(=O)N[C@@H](C)C(=O)N[C@@H](CCC(=O)O)C(=O)N[C@@H](CO)C(N)=O)[C@@H](C)O)NC(=O)[C@H](CCCNC(=N)N)NC(=O)[C@H](Cc2c[nH]cn2)NC(=O)[C@H](CCC(=O)O)NC(=O)CNC(=O)[C@H](Cc2c[nH]c3ccccc23)NC(=O)[C@H](CC(=O)O)NC(=O)[C@H](CCC(N)=O)NC(=O)[C@H](Cc2cccc3ccccc23)NC1=O` [Compound 63] (Ac-FCI[1Nal]QDWGEHRCTGAES-NH2; disulfide 2-12), in data set [1], the “Solubility, Condition 1” value is on record as “− (“−” denotes lack of solubility at the given condition, as UV absorbance at 340 nm exceeds 0.1 AU and/or it is visibly turbid or contains particles)”; the “Solubility, Condition 2” value is reported as “− (“−” denotes lack of solubility at the given condition, as UV absorbance at 340 nm exceeds 0.1 AU and/or it is visibly turbid or contains particles)”; the “Solubility, Condition 3” value is “+ (“+” denotes solubility at the given condition, as determined by UV absorbance being less than 0.1 AU at 340 nm and the sample being clear when manually inspected)”; the “Solubility, Condition 4” value is “+ (“+” denotes solubility at the given condition, as determined by UV absorbance being less than 0.1 AU at 340 nm and the sample being clear when manually inspected)”. For the same molecule, in data set [1], the “Solubility, Condition 5” value is “+ (“+” denotes solubility at the given condition, as determined by UV absorbance being less than 0.1 AU at 340 nm and the sample being clear when manually inspected)”. Also, the IC50 in data set [2] (setting [3]) was less than 100 nM.
Take `CC[C@H](C)[C@H](NC(=O)[C@H](C)NC(=O)[C@H](CO)NC(=O)[C@H](CO)NC(=O)[C@H](CCC(=O)O)NC(C)=O)C(=O)N[C@H]1CSSC[C@@H](C(=O)N[C@H](C(N)=O)[C@@H](C)O)NC(=O)[C@H](CCCNC(=N)N)NC(=O)[C@H](Cc2c[nH]cn2)NC(=O)[C@H](CCC(=O)O)NC(=O)CNC(=O)[C@H](Cc2c[nH]c3ccccc23)NC(=O)[C@H](CC(=O)O)NC(=O)[C@H](CCC(N)=O)NC(=O)[C@H](Cc2c[nH]c3ccccc23)NC(=O)[C@H]([C@@H](C)CC)NC1=O` [Compound 3] (Ac-ESSAICIWQDWGEHRCT-NH2; disulfide 6-16): in data set [1], the “Solubility, Condition 1” value is “+ (“+” denotes solubility at the given condition, as determined by UV absorbance being less than 0.1 AU at 340 nm and the sample being clear when manually inspected)”; the “Solubility, Condition 2” value is on record as “− (“−” denotes lack of solubility at the given condition, as UV absorbance at 340 nm exceeds 0.1 AU and/or it is visibly turbid or contains particles)”; the “Solubility, Condition 3” value is reported as “− (“−” denotes lack of solubility at the given condition, as UV absorbance at 340 nm exceeds 0.1 AU and/or it is visibly turbid or contains particles)”; the “Solubility, Condition 4” value is “+ (“+” denotes solubility at the given condition, as determined by UV absorbance being less than 0.1 AU at 340 nm and the sample being clear when manually inspected)”. The “Solubility, Condition 5” value in data set [1] was “+ (“+” denotes solubility at the given condition, as determined by UV absorbance being less than 0.1 AU at 340 nm and the sample being clear when manually inspected)”. Further, the IC50 in data set [2] (setting [3]) is less than 100 nM. In addition, the IC50 in data set [2] (Table 4, valine 3 vs isoleucine 3 pairs, read-out: CP hemolysis IC50) is 69 nM.
